Measured values from ChEMBL document CHEMBL1158635, “Antitrypanosomal alkaloids from Polyalthia suaveolens (Annonaceae): their effects on three selected glycolytic enzymes of Trypanosoma brucei” (Bioorg Med Chem Lett, 2010).
One block for each compound: values may come before it. Active and inactive are the calls of the source. The calls are words filed in the database; no cut-off is given here.

Assays:
[1] = target: T1, ATP-dependent 6-phosphofructokinase, muscle type (Oryctolagus cuniculus) (UniProt P00511); experiment: Inhibition of rabbit muscle PFK at 94 uM
T1 sequence (whole entry): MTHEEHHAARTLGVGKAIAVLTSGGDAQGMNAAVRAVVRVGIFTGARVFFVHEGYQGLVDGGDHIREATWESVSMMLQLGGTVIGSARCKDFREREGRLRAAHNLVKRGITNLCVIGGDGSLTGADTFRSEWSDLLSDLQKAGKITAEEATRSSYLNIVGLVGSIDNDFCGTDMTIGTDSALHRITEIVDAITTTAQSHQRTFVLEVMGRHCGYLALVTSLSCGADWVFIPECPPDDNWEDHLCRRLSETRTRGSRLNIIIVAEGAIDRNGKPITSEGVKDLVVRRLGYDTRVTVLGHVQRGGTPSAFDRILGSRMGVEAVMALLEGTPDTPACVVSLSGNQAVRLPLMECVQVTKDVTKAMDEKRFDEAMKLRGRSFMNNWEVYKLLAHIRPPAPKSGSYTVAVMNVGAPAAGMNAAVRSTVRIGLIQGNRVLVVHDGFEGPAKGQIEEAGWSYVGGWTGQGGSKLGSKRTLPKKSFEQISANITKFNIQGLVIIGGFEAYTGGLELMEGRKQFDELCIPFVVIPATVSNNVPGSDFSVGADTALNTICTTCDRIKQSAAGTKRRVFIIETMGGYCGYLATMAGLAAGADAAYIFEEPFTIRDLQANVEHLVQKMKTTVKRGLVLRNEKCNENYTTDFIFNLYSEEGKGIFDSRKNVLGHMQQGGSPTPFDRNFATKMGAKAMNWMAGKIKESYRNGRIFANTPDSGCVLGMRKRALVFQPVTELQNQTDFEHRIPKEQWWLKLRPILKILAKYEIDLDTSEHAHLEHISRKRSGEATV

[2] = target: T2, Fructose-bisphosphate aldolase A (Oryctolagus cuniculus, UniProt P00883); experiment: Inhibition of rabbit muscle aldolase
T2 sequence (P00883 whole entry): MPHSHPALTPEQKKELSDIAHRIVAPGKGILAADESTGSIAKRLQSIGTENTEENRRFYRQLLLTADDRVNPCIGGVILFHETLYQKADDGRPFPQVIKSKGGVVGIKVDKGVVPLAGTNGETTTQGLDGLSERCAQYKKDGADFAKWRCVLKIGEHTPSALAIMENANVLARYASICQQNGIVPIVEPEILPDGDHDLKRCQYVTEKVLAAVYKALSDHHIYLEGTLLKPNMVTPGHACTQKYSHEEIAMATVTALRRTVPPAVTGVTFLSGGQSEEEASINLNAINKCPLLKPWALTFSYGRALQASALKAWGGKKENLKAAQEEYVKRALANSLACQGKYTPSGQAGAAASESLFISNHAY

[3] = tested on: Trypanosoma brucei brucei; experiment: Antitrypanosomal activity against Trypanosoma brucei brucei 427 bloodstream form after 72 hrs by LILIT method; assay type: functional; conditions: for EC50: Trypanosoma brucei, 427, 72 h, read-out: ED50 (the source's name)
[4] = Inhibition of Trypanosoma brucei aldolase expressed in Escherichia coli
[5] = Inhibition of Trypanosoma brucei GAPDH expressed in Escherichia coli
[6] = tested on: MRC5; experiment: Cytotoxicity against human MRC5 cells after 72 hrs by Alamar blue staining; assay type: cell-based; conditions: mrc5, 72 h
[7] = target: Glyceraldehyde-3-phosphate dehydrogenase (Oryctolagus cuniculus, UniProt P46406); experiment: Inhibition of rabbit muscle GAPDH
Glyceraldehyde-3-phosphate dehydrogenase, sequence (P46406 whole entry): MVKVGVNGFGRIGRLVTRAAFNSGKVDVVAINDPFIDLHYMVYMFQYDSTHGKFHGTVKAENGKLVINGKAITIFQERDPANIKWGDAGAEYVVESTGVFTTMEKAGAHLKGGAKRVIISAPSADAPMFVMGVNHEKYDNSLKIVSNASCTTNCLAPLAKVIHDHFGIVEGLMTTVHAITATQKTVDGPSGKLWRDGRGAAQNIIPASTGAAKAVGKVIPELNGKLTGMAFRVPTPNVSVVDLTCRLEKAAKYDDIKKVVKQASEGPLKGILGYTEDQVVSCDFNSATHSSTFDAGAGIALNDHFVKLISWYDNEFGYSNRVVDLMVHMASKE

[8] = target: T3, ATP-dependent 6-phosphofructokinase (Trypanosoma brucei, UniProt O15648); experiment: Inhibition of Trypanosoma brucei PFK expressed in Escherichia coli
T3 sequence (O15648 whole entry): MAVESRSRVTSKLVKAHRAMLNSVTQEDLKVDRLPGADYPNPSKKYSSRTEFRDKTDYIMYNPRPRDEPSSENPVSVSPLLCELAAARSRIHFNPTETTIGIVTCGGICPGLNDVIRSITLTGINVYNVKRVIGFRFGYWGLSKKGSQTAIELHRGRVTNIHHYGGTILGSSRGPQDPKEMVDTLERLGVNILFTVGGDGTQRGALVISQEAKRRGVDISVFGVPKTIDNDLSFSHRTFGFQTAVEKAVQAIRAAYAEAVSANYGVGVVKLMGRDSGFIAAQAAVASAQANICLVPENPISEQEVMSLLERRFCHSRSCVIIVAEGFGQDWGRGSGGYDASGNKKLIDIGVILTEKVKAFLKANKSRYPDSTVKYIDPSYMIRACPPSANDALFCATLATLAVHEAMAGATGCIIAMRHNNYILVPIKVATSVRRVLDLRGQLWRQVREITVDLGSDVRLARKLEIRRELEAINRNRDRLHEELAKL

[9] = target: T3, ATP-dependent 6-phosphofructokinase; experiment: Competitive reversible inhibition of Trypanosoma brucei PFK expressed in Escherichia coli using fructose-6-phosphate by spectrophotometry analysis
[10] = tested on: Trypanosoma brucei; experiment: Inhibition of Trypanosoma brucei aldolase expressed in Escherichia coli at 100 uM
[11] = target: Glyceraldehyde-3-phosphate dehydrogenase (Oryctolagus cuniculus) (UniProt P46406); experiment: Inhibition of rabbit muscle GAPDH at 3000 uM
Glyceraldehyde-3-phosphate dehydrogenase (Oryctolagus cuniculus), sequence (P46406 whole entry, looked up): as the sequence (P46406 whole entry) above

[12] = target: T1, ATP-dependent 6-phosphofructokinase, muscle type (Oryctolagus cuniculus); experiment: Inhibition of rabbit muscle PFK at 170 uM
[13] = target: T4, ATP-dependent 6-phosphofructokinase (Trypanosoma brucei) (UniProt O15648); experiment: Ratio of Ki/Km for Trypanosoma brucei PFK expressed in Escherichia coli using fructose-6-phosphate by spectrophotometry analysis
T4 sequence (whole entry): T3 sequence (O15648 whole entry)

[14] = Selectivity ratio of IC50 for rabbit muscle aldolase to IC50 for Trypanosoma brucei aldolase; assay type: tissue-based; conditions: Muscle tissue
[15] = target: T1, ATP-dependent 6-phosphofructokinase, muscle type (Oryctolagus cuniculus); experiment: Inhibition of rabbit muscle PFK at 500 uM
[16] = Mixed-type reversible inhibition of Trypanosoma brucei GAPDH expressed in Escherichia coli at enzyme substrate complex by spectrophotometry analysis
[17] = Mixed-type reversible inhibition of Trypanosoma brucei GAPDH expressed in Escherichia coli using NAD+ by spectrophotometry analysis
[18] = target: T5, Fructose-bisphosphate aldolase A (Oryctolagus cuniculus) (UniProt P00883); experiment: Inhibition of rabbit muscle aldolase at 280 uM
T5 sequence (whole entry): T2 sequence (P00883 whole entry)

[19] = target: T1, ATP-dependent 6-phosphofructokinase, muscle type (Oryctolagus cuniculus); experiment: Inhibition of rabbit muscle PFK at 690 uM
[20] = target: T4, ATP-dependent 6-phosphofructokinase (Trypanosoma brucei); experiment: Inhibition of Trypanosoma brucei PFK expressed in Escherichia coli at 690 uM
[21] = tested on: Trypanosoma brucei; experiment: Inhibition of Trypanosoma brucei GAPDH expressed in Escherichia coli at 278 uM
[22] = target: Glyceraldehyde-3-phosphate dehydrogenase (Oryctolagus cuniculus) (UniProt P46406); experiment: Inhibition of rabbit muscle GAPDH at 69 uM
[23] = tested on: Trypanosoma brucei; experiment: Inhibition of Trypanosoma brucei aldolase expressed in Escherichia coli at 140 uM

Structure (SMILES): CC(=O)O[C@H]1CC[C@]2(C)[C@H]3Cc4cc5ccccc5n4[C@]3(C)CC[C@H]2C1(C)C
- inhibition [1]: 16%
- IC50 [2]: 150 µM
- ED50 [3]: inactive
- IC50 [4]: 0.5 µM
- IC50 [5]: 110 µM
- Activity [6]: Toxic
- IC50 [7]: 2050 µM
- IC50 [8]: 170 µM

Structure (SMILES): Nc1nc(N)nc(Nc2ccc([As]3SCC(CO)S3)cc2)n1 (stereo unspecified) [MELARSOPROL]
- EC50 [3]: 0.00395 µM

Structure (SMILES): CC1(C)[C@H](O)CC[C@]2(C)[C@@H]3C[C@@H]4Nc5ccccc5[C@@H]4[C@]3(C)CC[C@@H]12 [POLYVEOLINE]
- IC50 [2]: 270 µM
- Ratio IC50 [14]: 3
- inhibition [15]: inactive
- EC50 [3]: 54 µM
- Ki [16]: 50 µM
- IC50 [4]: 80 µM
- Ki [17]: 18 µM
- IC50 [5]: 110 µM
- Activity [6]: Toxic
- IC50 [7]: 620 µM
- IC50 [8]: 30 µM

Structure (SMILES): CC(=O)N1c2ccccc2[C@H]2[C@@H]1C[C@@H]1[C@@]2(C)CC[C@H]2C(C)(C)[C@H](O)CC[C@]12C
- EC50 [3]: 32 µM
- inhibition [18]: inactive
- inhibition [19]: 12%
- inhibition [20]: 28%
- inhibition [21]: 10%
- Activity [6]: Toxic
- inhibition [22]: 10%
- inhibition [23]: 11%

Further lines, with some results ahead:

- Ki [9]: 10 µM
- IC50 [2]: 87 µM
- inhibition [10]: 8%
- EC50 [3]: 18 µM
- inhibition [11]: inactive
- IC50 [8]: 20 µM
- inhibition [12]: 18%
Structure (SMILES): CC1(C)C(=O)CC[C@]2(C)C3Cc4cc5ccccc5n4[C@]3(C)CC[C@@H]12 (stereo partly specified)
- IC50 [5]: 1050 µM

- Ki/Km [13]: 0.05
Structure (SMILES): CC1(C)C(=O)CC[C@]2(C)[C@H]3Cc4cc5ccccc5n4[C@]3(C)CC[C@@H]12
- Activity [6]: Toxic

- Ki [9]: 9 µM
- Ki/Km [13]: 0.05
Structure (SMILES): CC1(C)C(=O)CC[C@@]2(C)[C@H]1CC[C@]1(C)[C@H]2Cc2cc3ccccc3n21 [POLYSIN]
- Activity [6]: Toxic
